Blank lines part the entries; values can stand above or below the compound they belong to.
How the values were obtained:
MV4-11 [1] = experiment: Antiproliferative activity against human MV4-11 cells assessed as reduction in cell viability incubated for 72 hrs by CCK-8 assay; type: functional, cell-based; settings: MV4-11, 72 h
NB-4 = experiment: Antiproliferative activity against human NB4 cells assessed as reduction in cell viability incubated for 72 hrs by CCK-8 assay; type: functional, cell-based; settings: NB-4, 72 h
HL-60 = experiment: Antiproliferative activity against human HL-60 cells assessed as reduction in cell viability incubated for 72 hrs by CCK-8 assay; type: functional, cell-based; settings: HL-60, 72 h
DOHH-2 = experiment: Antiproliferative activity against human DOHH-2 cells assessed as reduction in cell viability incubated for 72 hrs by CCK-8 assay; type: functional, cell-based; settings: DOHH-2, 72 h
Ramos = experiment: Antiproliferative activity against human Ramos cells assessed as reduction in cell viability incubated for 72 hrs by CCK-8 assay
Raji = experiment: Antiproliferative activity against human Raji cells assessed as reduction in cell viability incubated for 72 hrs by CCK-8 assay; type: functional, cell-based
[2] = Antiproliferative activity against human MINO cells assessed as reduction in cell viability incubated for 72 hrs by CCK-8 assay
L1210 = experiment: Antiproliferative activity against mouse L1210 cells assessed as reduction in cell viability incubated for 72 hrs by CCK-8 assay; type: functional, cell-based; settings: L1210, 72 h
[3] = system: Friend leukemia cell line; experiment: Antiproliferative activity against mouse Friend leukemia cell line assessed as reduction in cell viability incubated for 72 hrs by CCK-8 assay; type: functional, cell-based
BaF3 = experiment: Antiproliferative activity against mouse BaF3 cells assessed as reduction in cell viability incubated for 72 hrs by CCK-8 assay; type: functional, cell-based; settings: BaF3, 72 h
EL4 = experiment: Antiproliferative activity against mouse EL4 cells assessed as reduction in cell viability incubated for 72 hrs by CCK-8 assay; type: functional, cell-based; settings: EL4, 72 h
[4] = molecular target: Phosphatidylinositol 4,5-bisphosphate 3-kinase catalytic subunit alpha isoform (Homo sapiens, UniProt P42336)
Description: Inhibition of PI3Kalpha (unknown origin) using PIP2 as substrate incubated for 1 hr in presence of ATP by ADP-Glo assay

Histone deacetylase 1 = Histone deacetylase 1 (Homo sapiens, UniProt Q13547)
Description: Inhibition of C-terminal 6His-FLAG-tagged human recombinant HDAC1 (1 to 482 residues) expressed in Sf9 cells using Ac-peptide as substrate preincubated for 15 mins followed by substrate addition and measured after 1 hr by plate reader analysis

[5] = molecular target: Phosphatidylinositol 4,5-bisphosphate 3-kinase catalytic subunit beta isoform (Homo sapiens, UniProt P42338); experiment: Inhibition of PI3Kbeta (unknown origin) using PIP2 as substrate incubated for 1 hr in presence of ATP by ADP-Glo assay
[6] = molecular target: Phosphatidylinositol 4,5-bisphosphate 3-kinase catalytic subunit gamma isoform (Homo sapiens, UniProt P48736); experiment: Inhibition of PI3Kgamma (unknown origin) using PIP2 as substrate incubated for 1 hr in presence of ATP by ADP-Glo assay
[7] = molecular target: Phosphatidylinositol 4,5-bisphosphate 3-kinase catalytic subunit delta isoform (Homo sapiens, UniProt O00329); experiment: Inhibition of PI3Kdelta (unknown origin) using PIP2 as substrate incubated for 1 hr in presence of ATP by ADP-Glo assay
[8] = molecular target: Serine/threonine-protein kinase mTOR (Homo sapiens, UniProt P42345); experiment: Inhibition of N-terminal FLAG-tagged recombinant human mTOR (1362 to end residues) using ULight-4E-BP1 (Thr37/46) peptide as substrate incubated for 30 mins in presence of ATP by LANCE ultra assay
Histone deacetylase 2 = Histone deacetylase 2 (Homo sapiens, UniProt Q92769); experiment: Inhibition of C-terminal His6-FLAG-tagged human recombinant HDAC2 (1 to 488 residues) expressed in Sf9 cells using Ac-peptide as substrate preincubated for 15 mins followed by substrate addition and measured after 1 hr by plate reader analysis
Histone deacetylase 3 = Histone deacetylase 3 (Homo sapiens, UniProt O15379); experiment: Inhibition of HDAC3 (unknown origin)
Histone deacetylase 4 = Histone deacetylase 4 (Homo sapiens, UniProt P56524); experiment: Inhibition of N-terminal GST-tagged and C-terminal His-tagged human HDAC4 (627 to 1084 end residues) expressed in baculovirus infected Sf9 cells using Ac-peptide as substrate incubated for 1 hr by plate reader analysis
[9] = molecular target: Protein deacetylase HDAC6 (Homo sapiens, UniProt Q9UBN7); experiment: Inhibition of HDAC6 (unknown origin)
Histone deacetylase 8 = Histone deacetylase 8 (Homo sapiens, UniProt Q9BY41); experiment: Inhibition of C-terminal His-tagged human recombinant HDAC8 (1 to 377 end residues) expressed in Sf9 cells using Ac-peptide as substrate incubated for 1 hr by plate reader analysis
Histone deacetylase 11 = Histone deacetylase 11 (Homo sapiens, UniProt Q96DB2); experiment: Inhibition of human HDAC11 (1 to 347 end residues) expressed in Sf9 cells using Ac-peptide as substrate incubated for 1 hr by plate reader analysis
[10] = Terminal half life in ICR mouse at 6 mg/kg, iv measured after 24 hrs by LC-MS/MS analysis; type: ADME, organism-based; settings: in vivo
[11] = Terminal half life in ICR mouse at 60 mg/kg, po measured after 24 hrs by LC-MS/MS analysis; type: ADME, organism-based; settings: in vivo, read-out: beta t1/2 (converted)
[12] = Tmax in ICR mouse at 60 mg/kg, po measured after 24 hrs by LC-MS/MS analysis; type: ADME, organism-based; settings: in vivo
[13] = Cmax in ICR mouse at 6 mg/kg, iv measured after 24 hrs by LC-MS/MS analysis; type: ADME, organism-based; settings: in vivo
[14] = Cmax in ICR mouse at 60 mg/kg, po measured after 24 hrs by LC-MS/MS analysis; type: ADME, organism-based; settings: in vivo
[15] = AUC(0 to t) in ICR mouse at 6 mg/kg, iv measured after 24 hrs by LC-MS/MS analysis; type: ADME, organism-based; settings: in vivo
[16] = AUC(0 to t) in ICR mouse at 60 mg/kg, po measured after 24 hrs by LC-MS/MS analysis; type: ADME, organism-based; settings: in vivo
[17] = AUC(0 to infinity) in ICR mouse at 6 mg/kg, iv measured after 24 hrs by LC-MS/MS analysis; type: ADME, organism-based; settings: in vivo
[18] = AUC(0 to infinity) in ICR mouse at 60 mg/kg, po measured after 24 hrs by LC-MS/MS analysis; type: ADME, organism-based; settings: in vivo, po, 60 mg/kg, 24 h
MV4-11 [19] = experiment: Antitumor activity against human MV4-11 cells xenografted in BALB/c nude mouse assessed as tumor growth inhibition at 10 mg/kg, ip administered once daily for 14 days relative to control; type: functional; settings: MV4-11, 336 h, time 14 day, read-out: TGI
MV4-11 [20] = experiment: Antitumor activity against human MV4-11 cells xenografted in BALB/c nude mouse assessed as tumor growth inhibition at 20 mg/kg, ip administered once daily for 14 days relative to control; type: functional; settings: MV4-11, 336 h, time 14 day, read-out: TGI
MV4-11 [21] = experiment: Antitumor activity against human MV4-11 cells xenografted in BALB/c nude mouse assessed as tumor growth inhibition at 60 mg/kg, po administered once daily for 14 days relative to control; type: functional; settings: MV4-11, 336 h, time 14 day, read-out: TGI
[22] = Toxicity in BALB/c nude mouse xenografted with human MV4-11 cells assessed as change in body weight at 10 to 20 mg/kg, ip administered only daily for 14 days and measured twice a week; type: organism-based; settings: in vivo, 336 h, dose 10-20 mg/kg, time 14 day
[23] = Toxicity in BALB/c nude mouse xenografted with human MV4-11 cells assessed as change in body weight at 60 mg/kg, po administered only daily for 14 days and measured twice a week; type: organism-based; settings: in vivo, 336 h, time 14 day

Histone deacetylase 1, sequence (Q13547 whole entry, canonical isoform): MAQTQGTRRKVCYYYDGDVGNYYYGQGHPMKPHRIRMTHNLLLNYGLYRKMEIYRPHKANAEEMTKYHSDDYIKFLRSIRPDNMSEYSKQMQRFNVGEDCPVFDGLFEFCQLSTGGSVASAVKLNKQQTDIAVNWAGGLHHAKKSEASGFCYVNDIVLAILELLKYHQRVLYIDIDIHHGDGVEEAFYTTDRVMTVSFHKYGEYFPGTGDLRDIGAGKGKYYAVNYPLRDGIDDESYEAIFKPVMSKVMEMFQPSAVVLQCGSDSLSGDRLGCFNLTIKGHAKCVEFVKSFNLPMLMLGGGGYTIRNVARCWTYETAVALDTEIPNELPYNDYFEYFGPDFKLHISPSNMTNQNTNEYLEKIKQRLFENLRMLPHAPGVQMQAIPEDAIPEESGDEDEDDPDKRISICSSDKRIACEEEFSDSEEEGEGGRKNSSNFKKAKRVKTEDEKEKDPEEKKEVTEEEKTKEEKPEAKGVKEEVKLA
Phosphatidylinositol 4,5-bisphosphate 3-kinase catalytic subunit alpha isoform, sequence (P42336 whole entry, canonical isoform): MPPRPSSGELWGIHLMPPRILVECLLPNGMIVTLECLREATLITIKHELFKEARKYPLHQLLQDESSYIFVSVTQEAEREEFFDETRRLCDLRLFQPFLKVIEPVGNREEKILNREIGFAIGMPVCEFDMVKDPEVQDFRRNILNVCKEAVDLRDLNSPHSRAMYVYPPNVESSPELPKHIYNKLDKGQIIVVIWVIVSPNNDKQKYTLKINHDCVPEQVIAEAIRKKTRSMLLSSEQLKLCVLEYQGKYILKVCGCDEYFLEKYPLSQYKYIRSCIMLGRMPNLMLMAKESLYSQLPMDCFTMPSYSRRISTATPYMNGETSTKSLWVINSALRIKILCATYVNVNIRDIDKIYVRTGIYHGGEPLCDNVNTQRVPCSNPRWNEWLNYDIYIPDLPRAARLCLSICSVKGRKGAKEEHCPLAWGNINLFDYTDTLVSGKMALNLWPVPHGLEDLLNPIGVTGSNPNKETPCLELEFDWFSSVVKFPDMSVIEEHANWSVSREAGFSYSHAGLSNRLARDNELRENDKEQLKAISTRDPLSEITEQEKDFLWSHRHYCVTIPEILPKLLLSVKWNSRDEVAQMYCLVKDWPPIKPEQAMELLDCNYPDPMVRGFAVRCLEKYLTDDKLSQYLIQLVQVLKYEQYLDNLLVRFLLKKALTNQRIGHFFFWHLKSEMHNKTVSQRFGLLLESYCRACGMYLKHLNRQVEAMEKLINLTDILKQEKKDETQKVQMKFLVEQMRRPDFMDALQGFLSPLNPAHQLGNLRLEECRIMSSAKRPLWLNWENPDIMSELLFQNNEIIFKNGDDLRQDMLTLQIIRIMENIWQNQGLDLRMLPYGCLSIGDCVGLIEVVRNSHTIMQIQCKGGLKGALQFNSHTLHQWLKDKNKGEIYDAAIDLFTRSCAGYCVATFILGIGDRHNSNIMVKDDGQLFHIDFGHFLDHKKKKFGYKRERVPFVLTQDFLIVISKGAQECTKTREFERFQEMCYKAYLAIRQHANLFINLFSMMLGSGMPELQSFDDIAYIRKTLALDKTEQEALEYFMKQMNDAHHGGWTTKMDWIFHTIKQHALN
Phosphatidylinositol 4,5-bisphosphate 3-kinase catalytic subunit beta isoform, sequence (P42338 whole entry, canonical isoform): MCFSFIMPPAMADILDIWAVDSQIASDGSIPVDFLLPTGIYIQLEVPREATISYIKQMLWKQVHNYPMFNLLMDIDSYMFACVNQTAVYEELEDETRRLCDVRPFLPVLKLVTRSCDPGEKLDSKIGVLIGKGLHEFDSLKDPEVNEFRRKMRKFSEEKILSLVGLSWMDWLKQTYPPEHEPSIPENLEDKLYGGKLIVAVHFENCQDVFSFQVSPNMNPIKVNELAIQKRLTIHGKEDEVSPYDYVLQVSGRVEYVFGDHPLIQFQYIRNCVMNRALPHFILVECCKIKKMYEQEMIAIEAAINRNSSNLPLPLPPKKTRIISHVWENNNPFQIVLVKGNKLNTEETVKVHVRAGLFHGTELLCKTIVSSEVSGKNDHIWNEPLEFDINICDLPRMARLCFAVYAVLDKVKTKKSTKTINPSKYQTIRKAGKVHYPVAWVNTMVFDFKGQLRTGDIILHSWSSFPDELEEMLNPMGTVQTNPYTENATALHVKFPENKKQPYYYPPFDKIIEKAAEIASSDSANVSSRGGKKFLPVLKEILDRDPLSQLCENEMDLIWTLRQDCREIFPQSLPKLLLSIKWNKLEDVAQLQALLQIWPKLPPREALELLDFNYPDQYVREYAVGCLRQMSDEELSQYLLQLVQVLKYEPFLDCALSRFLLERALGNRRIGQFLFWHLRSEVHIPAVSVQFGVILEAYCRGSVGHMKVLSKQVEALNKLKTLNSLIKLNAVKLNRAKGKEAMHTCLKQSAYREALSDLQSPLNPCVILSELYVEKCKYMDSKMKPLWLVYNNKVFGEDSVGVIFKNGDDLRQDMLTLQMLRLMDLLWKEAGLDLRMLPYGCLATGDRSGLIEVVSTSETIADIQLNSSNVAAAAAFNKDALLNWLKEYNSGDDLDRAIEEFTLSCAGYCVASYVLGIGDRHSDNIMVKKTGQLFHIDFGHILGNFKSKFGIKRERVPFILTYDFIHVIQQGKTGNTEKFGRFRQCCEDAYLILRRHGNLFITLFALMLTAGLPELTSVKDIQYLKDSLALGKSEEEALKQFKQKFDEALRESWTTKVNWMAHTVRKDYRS
Histone deacetylase 11, sequence (Q96DB2 whole entry): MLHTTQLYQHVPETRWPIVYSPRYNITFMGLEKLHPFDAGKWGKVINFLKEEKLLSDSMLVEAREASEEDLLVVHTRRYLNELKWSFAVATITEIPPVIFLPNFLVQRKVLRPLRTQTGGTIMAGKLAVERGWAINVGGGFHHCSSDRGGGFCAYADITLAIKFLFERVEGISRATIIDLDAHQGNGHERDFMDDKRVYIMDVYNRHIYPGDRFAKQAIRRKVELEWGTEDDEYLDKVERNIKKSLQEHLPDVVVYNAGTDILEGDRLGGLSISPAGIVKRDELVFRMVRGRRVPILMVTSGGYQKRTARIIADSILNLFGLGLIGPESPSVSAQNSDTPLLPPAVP
Phosphatidylinositol 4,5-bisphosphate 3-kinase catalytic subunit gamma isoform, sequence (P48736 whole entry, canonical isoform): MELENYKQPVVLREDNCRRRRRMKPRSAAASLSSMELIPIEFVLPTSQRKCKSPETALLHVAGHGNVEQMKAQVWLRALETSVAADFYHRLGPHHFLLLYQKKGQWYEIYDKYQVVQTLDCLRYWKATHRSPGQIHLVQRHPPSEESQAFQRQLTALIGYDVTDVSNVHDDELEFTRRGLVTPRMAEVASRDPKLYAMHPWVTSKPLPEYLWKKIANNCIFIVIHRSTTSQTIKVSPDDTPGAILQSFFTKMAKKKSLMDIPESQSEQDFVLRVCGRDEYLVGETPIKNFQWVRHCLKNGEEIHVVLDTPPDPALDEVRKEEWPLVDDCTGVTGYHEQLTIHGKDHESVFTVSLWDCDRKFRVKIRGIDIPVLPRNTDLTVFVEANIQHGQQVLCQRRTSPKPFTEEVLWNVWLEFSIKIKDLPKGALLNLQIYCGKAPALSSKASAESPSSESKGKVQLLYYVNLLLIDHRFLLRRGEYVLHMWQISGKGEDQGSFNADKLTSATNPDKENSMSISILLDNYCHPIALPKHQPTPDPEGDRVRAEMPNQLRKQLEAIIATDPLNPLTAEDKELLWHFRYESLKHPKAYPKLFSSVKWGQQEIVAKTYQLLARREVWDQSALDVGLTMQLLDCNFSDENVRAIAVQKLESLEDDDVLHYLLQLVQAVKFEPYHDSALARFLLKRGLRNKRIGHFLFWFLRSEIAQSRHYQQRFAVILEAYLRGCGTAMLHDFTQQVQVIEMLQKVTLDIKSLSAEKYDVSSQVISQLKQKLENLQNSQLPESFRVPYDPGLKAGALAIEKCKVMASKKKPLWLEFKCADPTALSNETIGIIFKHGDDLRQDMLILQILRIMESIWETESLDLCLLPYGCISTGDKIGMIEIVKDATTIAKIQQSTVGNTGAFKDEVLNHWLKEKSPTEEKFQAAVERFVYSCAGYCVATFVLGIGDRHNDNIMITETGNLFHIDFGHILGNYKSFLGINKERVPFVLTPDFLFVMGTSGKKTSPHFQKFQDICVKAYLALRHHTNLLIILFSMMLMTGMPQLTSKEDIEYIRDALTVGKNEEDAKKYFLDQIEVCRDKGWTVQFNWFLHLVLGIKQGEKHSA
Histone deacetylase 3, sequence (O15379 whole entry): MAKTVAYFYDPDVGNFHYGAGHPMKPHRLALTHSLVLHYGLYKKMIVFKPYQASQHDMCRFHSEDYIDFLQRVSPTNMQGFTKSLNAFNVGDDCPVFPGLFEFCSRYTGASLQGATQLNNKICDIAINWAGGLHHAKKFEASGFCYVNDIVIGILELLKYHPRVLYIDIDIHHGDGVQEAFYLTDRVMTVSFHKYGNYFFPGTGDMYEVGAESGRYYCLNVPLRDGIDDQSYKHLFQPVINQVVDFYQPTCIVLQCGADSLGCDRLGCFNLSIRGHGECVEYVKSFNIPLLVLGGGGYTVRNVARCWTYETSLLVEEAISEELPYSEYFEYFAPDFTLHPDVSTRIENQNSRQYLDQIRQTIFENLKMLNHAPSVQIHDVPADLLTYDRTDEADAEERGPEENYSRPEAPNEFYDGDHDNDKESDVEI
Histone deacetylase 8, sequence (Q9BY41 whole entry): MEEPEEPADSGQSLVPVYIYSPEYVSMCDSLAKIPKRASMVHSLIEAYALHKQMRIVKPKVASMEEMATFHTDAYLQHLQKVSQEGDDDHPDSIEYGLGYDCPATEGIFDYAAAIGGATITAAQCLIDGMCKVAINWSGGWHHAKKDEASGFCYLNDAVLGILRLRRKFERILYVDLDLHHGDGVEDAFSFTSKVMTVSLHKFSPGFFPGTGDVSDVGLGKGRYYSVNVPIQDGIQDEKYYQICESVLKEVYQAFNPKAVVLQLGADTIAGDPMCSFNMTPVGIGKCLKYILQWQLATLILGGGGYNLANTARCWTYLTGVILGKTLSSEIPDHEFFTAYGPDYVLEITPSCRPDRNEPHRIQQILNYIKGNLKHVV

IC50 (MV4-11 [1]): 320 nM
IC50 (HL-60): 1300 nM
IC50 (Ramos): > 10000 nM
IC50 (Raji): 6900 nM
IC50 (L1210): > 10000 nM
IC50 [3]: 500 nM
IC50 (BaF3): 1500 nM
Compound: Nc1ccc(F)cc1NC(=O)c1ccc(CNC(=O)/C=C/c2cccnc2)cc1
IC50 (NB-4): 1900 nM
IC50 (DOHH-2): 4300 nM
IC50 [2]: 2100 nM
IC50 (EL4): 5200 nM

IC50 (MV4-11 [1]): 250 nM
Compound: COc1ncc(-c2cc(OCCCCCCC(=O)NO)c3ncnc(C)c3c2)cc1F

IC50 (MV4-11 [1]): 60 nM
IC50 [4]: 0.4 nM
IC50 (Histone deacetylase 1): 3030 nM
Compound: COc1ncc(-c2cc(OCCCCCCCCCC(=O)Nc3ccccc3N)c3ncnc(C)c3c2)cc1NS(=O)(=O)c1ccc(F)cc1F

IC50 (MV4-11 [1]): 10 nM
IC50 [4]: 0.39 nM
IC50 (Histone deacetylase 1): 253 nM
Compound: COc1ncc(-c2cc(OCCCCCCCCC(=O)Nc3ccccc3N)c3ncnc(C)c3c2)cc1NS(=O)(=O)c1ccc(F)cc1F

IC50 (MV4-11 [1]): 4 nM
IC50 [5]: 0.66 nM
IC50 [6]: 1.8 nM
IC50 [7]: 1.9 nM
IC50 [8]: 3.4 nM
IC50 (Histone deacetylase 2): 181 nM
IC50 (Histone deacetylase 3): 899 nM
IC50 (Histone deacetylase 4): > 10000 nM
IC50 [9]: > 10000 nM
IC50 (Histone deacetylase 8): > 10000 nM
IC50 (Histone deacetylase 11): > 10000 nM
IC50 (HL-60): 210 nM
IC50 (Ramos): 4400 nM
IC50 (Raji): 6300 nM
IC50 (L1210): 140 nM
IC50 [3]: 350 nM
IC50 (BaF3): 130 nM
beta t1/2 [10]: 2.3 h
half-life [11]: 1.38 h
Tmax [12]: 0.52 h
Cmax [13]: 8310 ng/mL
Cmax [14]: 3780 ng/mL
AUC(0-t) at 24 h [15]: 1580 ng·h/mL
AUC(0-t) at 24 h [16]: 5020 ng·h/mL
AUC [17]: 1605 ng·h/mL
AUC [18]: 5042 ng·h/mL
IC50 [4]: 0.23 nM
IC50 (Histone deacetylase 1): 172 nM
Compound: COc1ncc(-c2cc(OCCCCCCC(=O)Nc3ccccc3N)c3ncnc(C)c3c2)cc1NS(=O)(=O)c1ccc(F)cc1F
IC50 (NB-4): 40 nM
IC50 (DOHH-2): 5400 nM
IC50 [2]: 5400 nM
IC50 (EL4): 560 nM
inhibition in vivo at 10 mg/kg (MV4-11 [19]): 53.6%
inhibition in vivo at 20 mg/kg (MV4-11 [20]): 75%
inhibition in vivo at 60 mg/kg (MV4-11 [21]): 53.6%
Activity [22]: Non-Toxic
Activity [23]: Non-Toxic

IC50 (MV4-11 [1]): 30 nM
IC50 [4]: 0.23 nM
IC50 (Histone deacetylase 1): 4710 nM
Compound: COc1ncc(-c2cc(OCCCC(=O)Nc3ccccc3N)c3ncnc(C)c3c2)cc1NS(=O)(=O)c1ccc(F)cc1F

IC50 (MV4-11 [1]): 20 nM
IC50 [4]: 0.2 nM
IC50 (Histone deacetylase 1): 3560 nM
Compound: COc1ncc(-c2cc(OCCCCC(=O)Nc3ccccc3N)c3ncnc(C)c3c2)cc1NS(=O)(=O)c1ccc(F)cc1F

Source: ChEMBL document CHEMBL5537133, “Rational design and optimization of novel 4-methyl quinazoline derivatives as PI3K/HDAC dual inhibitors with benzamide as zinc binding moiety for the treatment of acute myeloid leukemia” (Eur J Med Chem, 2024)
